According to patent publication US4584379A, “Isoquinoline thromboxane synthetase inhibitors” (Merrell Dow Pharmaceuticals Inc., priority 1985, dated 1986):

Legend:
washed platelets = assay: 14C-arachidonic acid metabolism by washed platelets (TLC); assay type: cell-based, human
Method: Washed platelets (400 μl) prepared as above were placed in a cuvette. Either vehicle (50 μl), isoquinoline test compound, or indomethacin was then added. After incubation for 55 seconds at 37° C., 50 μl of calcium chloride (5 mM) was added and, at 60 seconds, 50 μl of ^14 C-arachidonic acid (0.1 μCi, 0.4 mM) was added. Four minutes later, 80 μl of 10% formic acid was added to stop the reaction. The contents were then poured into 6.5 ml of ice-cold ethyl acetate and the cuvette was further rinsed twice with 1 ml of ethyl acetate. The samples were subsequently extracted as previously described. The dried extract was reconstituted in chloroform:methanol (2:1) and spotted onto TLC plates. PGE2 PGF2α, TXB2 (20 μg of each) were spotted as the reference. The plates were developed in a chloroform:methanol, acetic acid, water (90:8:1:0.8) solution. […] Each plate was visualized with iodine vapor, the Rf s noted and then 1 cm zones scraped and counted in a Beckman Liquid Scintillation spectrometer.

thromboxane synthetase [1] = assay: iTXB2 production by whole blood after intravenous dosing of rats; assay type: in vivo, Sprague-Dawley rats; conditions: 30 minutes prior to obtaining blood, female rats
Method: Varying doses of the test compound were administered intravenously to female Sprague-Dawley rats weighing between 250-300 g 30 minutes prior to obtaining blood. […] A dose of 10 mg/kg produced approximately a 50% inhibition of iTXB2 production.

platelet rich plasma [2] = assay: ADP induced platelet aggregation in platelet rich plasma (Born aggregometry); assay type: cell-based, human
Method: (§1) The specific inhibitory activity of the present compounds can be determined by the following procedures. For platelet aggregation, blood was collected from normal volunteers into sodium citrate (3.8% w/v) 9:1. The indicated volunteers had not ingested aspirin or other non-steroidal anti-inflammatory drugs for at least 7 days. Platelet rich plasma was prepared from the blood by centrifugation at 200×g for 15 minutes. This plasma was centrifuged at 10,000×g for 2 minutes to obtain platelet poor plasma blank. The platelet rich plasma was incubated at 37° C. for 60 seconds prior to addition of vehicle or compound. The platelet rich plasma was then incubated for an additional 60 seconds prior to the addition of arachidonic acid or ADP. Aliquots (50 μl) were removed at 30 and 60 seconds after the addition of arachidonic acid for determination of iTXB2. Platelet aggregation was monitored in a Model 300 Chronolog aggregometer using the method of Born.

thromboxane synthetase [3] = assay: iTXB2 produced during arachidonic acid induced platelet aggregation; assay type: cell-based, human; conditions: 1 mM
Method: as §1

platelet rich plasma [4] = assay: arachidonic acid induced platelet aggregation in platelet rich plasma (Born aggregometry); assay type: cell-based, human
Method: as §1

microphages = assay: endogenous arachidonic acid metabolism by microphages; assay type: cell-based
Method: To establish if the test compound was a selective thromboxane synthetase inhibitor or a fatty acid cyclooxygenase inhibitor, the effects of the isoquinoline on endogenous arachidonic acid metabolism by microphages was assessed. […] The effect on i-6-keto-PGFα levels was variable. At a concentration of 500 μm it inhibited i-6-keto-PGFα formation and at 250 μm it increased its formation. At all other concentrations it had no affect.

## COc1ccc2c(c1)c(CC(=O)O)c(C)n2C(=O)c1ccc(Cl)cc1 [indomethacin, reference compound]
Washed platelets; Homo sapiens, Platelet, 4 min, read-out: reduction of metabolism of arachidonic acid compared to controls
  inhibition at 50 µM: 78%

## O=C(O)c1ccc(NCc2cncc3ccccc23)cc1 [isoquinoline, 4-[(4-isoquinolinylmethyl)amino]benzoic acid]
Thromboxane synthetase [1]; 10 mg/kg intravenously
  inhibition of iTXB2 production: ~50%
Thromboxane synthetase [1]; varying doses intravenously
  iTXB2 production by whole blood: dose dependent reduction
Platelet rich plasma [2]; 1 mM
  ADP induced platelet aggregation as compared to control: marked effect
Platelet rich plasma [2]; Homo sapiens, Platelet, 1 min, 1000 μM, at 60 seconds, read-out: reduction of ADP aggregation
  inhibition at 1000 µM: 30%
Thromboxane synthetase [3]; 30 seconds
  amounts of iTXB2 produced during arachidonic acid induced platelet aggregation: significantly reduced
Thromboxane synthetase [3]; 60 seconds
  amounts of iTXB2 produced during arachidonic acid induced platelet aggregation: significantly reduced
Washed platelets; washed platelets
  percent of arachidonic acid converted to PGE2: did not affect
  percentage of arachidonic acid converted to TXB2: reduced
Washed platelets; washed platelets, versus vehicle controls
  total amount of arachidonic acid metabolized via the cyclo-oxygenase pathway: not different from the vehicle controls
Platelet rich plasma [4]; 0.5 mM
  rate of arachidonic acid induced platelet aggregation: significantly inhibited
Platelet rich plasma [4]; 1 mM
  rate of arachidonic acid induced platelet aggregation: significantly inhibited
microphages; 10 μM to 1000 μM
  basal synthesis of iTXB2 by microphages: significantly reduced
microphages; 250 μm
  i-6-keto-PGFα formation: increased
microphages; 500 μm
  i-6-keto-PGFα formation: inhibited
microphages; all other concentrations
  i-6-keto-PGFα formation: no affect
microphages; at most concentrations
  iPGE levels: significantly increased
microphages; conclusion from iTXB2, iPGE and i-6-keto-PGFα levels
  selectivity for thromboxane synthesis: appears to selectively inhibit thromboxane synthesis
